Key:
[1] = compound: C1CC(C1)(C(=O)[O-])C(=O)[O-].N.N.[Pt+2] [Carboplatin]; conditions: max 10 µM
Procedure, shortened: (§1)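 In 1536-well plates, cancer cell lines in 7.5 μl DMEM/F12 or RPMI with 10% FBS spent 24 hours at 37°C and 5% CO2 and were then dosed for 72 hours with final DMSO typically 0.2%. Viability was read by CellTiter-Glo 2.0 luminescence and scaled between blank-well and DMSO-well means. The single-agent IC50 was fitted from dose responses using a logistic curve in a non-linear mixed effects model, and that logistic curve had two parameters.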

[2] = compound: C1CN(CCC1(C(=O)N[C@@H](CCO)C2=CC=C(C=C2)Cl)N)C3=NC=NC4=C3C=CN4 [AZD5363]; conditions: max 10 µM
Procedure, shortened: as §1

[3] = compound: C=CCn1c(=O)c2cnc(Nc3ccc(N4CCN(C)CC4)cc3)nc2n1-c1cccc(C(C)(C)O)n1 [AZD1775]; conditions: max 3 µM
Procedure, shortened: as §1

[4] = compound: CC(=O)Nc1cccc(-n2c(=O)n(C3CC3)c(=O)c3c(Nc4ccc(I)cc4F)n(C)c(=O)c(C)c32)c1 [Trametinib]; conditions: max 1 µM
Procedure, shortened: as §1

[5] = compound: CC(=O)O[C@H]1C(=O)[C@@]2(C)[C@H]([C@H](OC(=O)c3ccccc3)[C@]3(O)C[C@H](OC(=O)[C@H](O)[C@@H](NC(=O)c4ccccc4)c4ccccc4)C(C)=C1C3(C)C)[C@]1(OC(C)=O)CO[C@@H]1C[C@@H]2O [Paclitaxel]; conditions: max 3 µM
Procedure, shortened: as §1

[6] = compound: CC(=O)c1c(C)c2cnc(Nc3ccc(N4CCNCC4)cn3)nc2n(C2CCCC2)c1=O [Palbociclib]; conditions: max 10 µM
Procedure, shortened: as §1

[7] = compound: CC(C)n1c(=O)n(C)c2cnc3cc(F)c(-c4ccc(OCCCN5CCCCC5)nc4)cc3c21 [AZD1390]; conditions: max 0.3 µM
Procedure, shortened: as §1

[8] = compound: CC1(C)CCC(CN2CCN(c3ccc(C(=O)NS(=O)(=O)c4ccc(NCC5CCOCC5)c([N+](=O)[O-])c4)c(Oc4cnc5[nH]ccc5c4)c3)CC2)=C(c2ccc(Cl)cc2)C1 [Venetoclax]; conditions: max 1 µM
Procedure, shortened: as §1

[9] = compound: CC1=C(C(=CC=C1)Cl)NC(=O)C2=CN=C(S2)NC3=CC(=NC(=N3)C)N4CCN(CC4)CCO [Dasatinib]; conditions: max 2 µM
Procedure, shortened: as §1

[10] = compound: CC1=CN2[C@@H](C1)C=NC3=CC(=C(C=C3C2=O)OC)OCCCCCOC4=C(C=C5C(=C4)N=C[C@@H]6CC(=CN6C5=O)C)OC [SG3199]; conditions: max 0.001 µM
Procedure, shortened: as §1

[11] = compound: CCN(CCO)CCCOc1ccc2c(Nc3cc(CC(=O)Nc4cccc(F)c4)[nH]n3)ncnc2c1 [AZD2811]; conditions: max 1 µM
Procedure, shortened: as §1

[12] = compound: CCc1c2c(nc3ccc(O)cc13)-c1cc3c(c(=O)n1C2)COC(=O)[C@]3(O)CC [SN-38]; conditions: max 0.3 µM
Procedure, shortened: as §1

[13] = compound: CN(C)CCCOc1ccc(-c2ccc3ncc4c(c3c2)n(C2CCOCC2)c(=O)n4C)cn1 [AZD0156]; conditions: max 3 µM
Procedure, shortened: as §1

[14] = compound: CN(CC[C@H](CSC1=CC=CC=C1)NC2=C(C=C(C=C2)S(=O)(=O)NC(=O)C3=CC=C(C=C3)N4CCC(CC4)[C@H](C5=CC=CC=C5C6=CC=C(C=C6)Cl)O)S(=O)(=O)C(F)(F)F)CCO [AZD4320]; conditions: max 1 µM
Procedure, shortened: as §1

[15] = compound: COc1cc(Nc2ncc3c(n2)-c2ccc(Cl)cc2C(c2c(F)cccc2OC)=NC3)ccc1C(=O)O [Alisertib]; conditions: max 10 µM
Procedure, shortened: as §1

[16] = compound: COc1cc([C@@H]2c3cc4c(cc3[C@@H](O[C@@H]3O[C@@H]5CO[C@@H](C)O[C@H]5[C@H](O)[C@H]3O)[C@H]3COC(=O)[C@H]23)OCO4)cc(OC)c1O [Etoposide]; conditions: max 10 µM
Procedure, shortened: as §1

[17] = compound: COc1cc2ncnc(Nc3ccc(F)c(Cl)c3)c2cc1OCCCN1CCOCC1 [Gefitinib]; conditions: max 10 µM
Procedure, shortened: as §1

[18] = compound: COc1cccc(OCCCN)c1-c1cc(Nc2cnc(C#N)cn2)n[nH]1 [Prexasertib]; conditions: max 1 µM
Procedure, shortened: as §1

[19] = compound: COc1cccc2c1C(=O)c1c(O)c3c(c(O)c1C2=O)C[C@@](O)(C(=O)CO)C[C@@H]3O[C@H]1C[C@H](N)[C@H](O)[C@H](C)O1 [Doxorubicin]; conditions: max 1 µM
Procedure, shortened: as §1

[20] = compound: COc1nnc2ccc(N3CCC(c4ccc(OCCN5CCN(C)C(=O)[C@H]5C)cc4)CC3)nn12 [AZD5153]; conditions: max 1 µM
Procedure, shortened: as §1

[21] = compound: CS(=O)(=O)CCNCc1ccc(-c2ccc3ncnc(Nc4ccc(OCc5cccc(F)c5)c(Cl)c4)c3c2)o1 [Lapatinib]; conditions: max 10 µM
Procedure, shortened: as §1

[22] = compound: C[C@@H](Nc1cc(F)cc(F)c1)c1cc(C(=O)N(C)C)cc2c(=O)cc(N3CCOCC3)oc12 [AZD8186]
Procedure, shortened: as §1

[23] = compound: C[C@@H](Oc1cc(-c2cnn(C3CCNCC3)c2)cnc1N)c1c(Cl)ccc(F)c1Cl [Crizotinib]; conditions: max 10 µM
Procedure, shortened: as §1

[24] = compound: C[C@@H](c1ccc2nccn2c1)n1nnc2ncc(-c3cnn(C)c3)nc21 [Savolitinib]; conditions: max 1 µM
Procedure, shortened: as §1

[25] = compound: C[C@@H]1COCCN1C2=NC(=NC(=C2)C3(CC3)[S@](=N)(=O)C)C4=C5C=CNC5=NC=C4 [AZD6738]; conditions: max 10 µM
Procedure, shortened: as §1

[26] = compound: Cc1c2c(nn1C)CSCc1cc(n(C)n1)CSc1cc(c3ccccc3c1)OCCCc1c(C(=O)O)n(C)c3c-2c(Cl)ccc13 [AZD5991]; conditions: max 1 µM
Procedure, shortened: as §1

[27] = compound: Cc1cc2ncnn2cc1Nc1ncc2c(n1)n(C1CCOCC1)c(=O)n2C [AZD7648]; conditions: max 10 µM
Procedure, shortened: as §1

[28] = compound: Cc1nc(-c2cn3c(n2)-c2ccc(-c4cnn(C(C)(C)C(N)=O)c4)cc2OCC3)n(C(C)C)n1 [Taselisib]; conditions: max 10 µM
Procedure, shortened: as §1

[29] = compound: Cn1cnc2c(F)c(Nc3ccc(Br)cc3Cl)c(C(=O)NOCCO)cc21 [Selumetinib]; conditions: max 10 µM
Procedure, shortened: as §1

[30] = compound: N#Cc1cnc(Nc2cc(NC[C@H]3CNCCO3)c(C(F)(F)F)cn2)cn1 [SRA737]; conditions: max 10 µM
Procedure, shortened: as §1

[31] = compound: NC1(c2ccc(-c3nc4ccn5c(=O)[nH]nc5c4cc3-c3ccccc3)cc2)CCC1 [MK-2206]; conditions: max 10 µM
Procedure, shortened: as §1

[32] = compound: Nc1ccn([C@@H]2O[C@H](CO)[C@@H](O)C2(F)F)c(=O)n1 [Gemcitabine]; conditions: max 0.3 µM
Procedure, shortened: as §1

[33] = compound: O=C(Nc1ccc2[nH]nc(-c3ccncc3)c2c1)[C@@H]1CCN(CC(=O)N2CCN(c3ccc(-c4ncccn4)cc3)CC2)C1; conditions: max 5 µM
Procedure, shortened: as §1

[34] = compound: O=C(c1cc(Cc2n[nH]c(=O)c3ccccc23)ccc1F)N1CCN(C(=O)C2CC2)CC1 [Olaparib]; conditions: max 10 µM
Procedure, shortened: as §1

[35] = compound: O=c1[nH]cc(F)c(=O)[nH]1 [5-Fluorouracil]; conditions: max 20 µM
Procedure, shortened: as §1

[36] = compound: C1CN(CCC1(C(=O)N[C@@H](CCO)C2=CC=C(C=C2)Cl)N)C3=NC=NC4=C3C=CN4 [Capivasertib]; conditions: max 10 µM
Procedure, shortened: as §1

Cell Line | IC50, cell viability 72 h [1] [µM] | IC50, cell viability 72 h [2] [µM] | IC50, cell viability 72 h [3] [µM] | IC50, cell viability 72 h [4] [µM] | IC50, cell viability 72 h [5] [µM] | IC50, cell viability 72 h [6] [µM] | IC50, cell viability 72 h [7] [µM] | IC50, cell viability 72 h [8] [µM] | IC50, cell viability 72 h [9] [µM] | IC50, cell viability 72 h [10] [µM] | IC50, cell viability 72 h [11] [µM] | IC50, cell viability 72 h [12] [µM] | IC50, cell viability 72 h [13] [µM] | IC50, cell viability 72 h [14] [µM] | IC50, cell viability 72 h [15] [µM] | IC50, cell viability 72 h [16] [µM] | IC50, cell viability 72 h [17] [µM] | IC50, cell viability 72 h [18] [µM] | IC50, cell viability 72 h [19] [µM] | IC50, cell viability 72 h [20] [µM] | IC50, cell viability 72 h [21] [µM] | IC50, cell viability 72 h ([22]; max 10 µM) [µM] | IC50, cell viability 72 h [23] [µM] | IC50, cell viability 72 h [24] [µM] | IC50, cell viability 72 h [25] [µM] | IC50, cell viability 72 h [26] [µM] | IC50, cell viability 72 h [27] [µM] | IC50, cell viability 72 h [28] [µM] | IC50, cell viability 72 h [29] [µM] | IC50, cell viability 72 h [30] [µM] | IC50, cell viability 72 h [31] [µM] | IC50, cell viability 72 h [32] [µM] | IC50, cell viability 72 h [33] [µM] | IC50, cell viability 72 h [34] [µM] | IC50, cell viability 72 h [35] [µM] | IC50, cell viability 72 h [36] [µM] | IC50, cell viability 72 h ([22]; max 3 µM) [µM]
U-2-OS (Osteosarcoma) | > 10 | > 10 | 1.08 | 0.14 | 0.162 | > 10 | > 0.3 | > 1 | > 2 | > 0.001 | > 1 | > 0.3 | > 3 | > 1 | > 10 | > 10 | > 10 | 0.0174 | > 1 | > 1 | > 10 | > 10 | > 10 | > 1 | > 10 | > 1 | > 10 | > 10 | > 10 | 5.43 | > 10 | > 0.3 | 2.13 | > 10 | > 20 |  | 
NCI-H1666 (Lung Adenocarcinoma) | > 10 | > 10 | > 3 | 0.103 | 0.794 | > 10 | > 0.3 | > 1 | > 2 | > 0.001 | > 1 | 0.238 | > 3 | > 1 | > 10 | > 10 | > 10 | > 1 | > 1 | > 1 | > 10 | > 10 | > 10 | > 1 | > 10 | > 1 | > 10 | 3.2 | 7.17 | > 10 | > 10 | > 0.3 | > 5 | > 10 | > 20 |  | 
FU97 (Gastric Carcinoma) | > 10 | > 10 | > 3 |  | > 3 | > 10 | > 0.3 | > 1 | > 2 | > 0.001 | > 1 | > 0.3 | > 3 | > 1 | > 10 | > 10 | > 10 | > 1 | > 1 | 0.288 | > 10 | > 10 | > 10 | > 1 | > 10 | > 1 | > 10 | > 10 | > 10 | > 10 | > 10 | > 0.3 | > 5 | > 10 | > 20 |  | 
TT2609-C02 (Thyroid Gland Carcinoma) |  |  | > 3 | 0.28 |  | > 10 | > 0.3 | > 1 | > 2 | > 0.001 | > 1 | 0.069 | > 3 | > 1 | > 10 |  | > 10 | > 1 | > 1 | > 1 | > 10 |  | > 10 | > 1 | > 10 | > 1 | > 10 | > 10 | 6.35 |  |  |  |  | > 10 |  | > 10 | > 3
NCI-H2591 (Mesothelioma) |  |  | > 3 | > 1 |  | > 10 | > 0.3 | > 1 | > 2 | > 0.001 | > 1 | 0.0717 | > 3 | > 1 | > 10 |  | > 10 | > 1 | > 1 | > 1 | > 10 |  | > 10 | > 1 | > 10 | > 1 | > 10 | > 10 | > 10 |  | > 10 |  |  | > 10 |  | > 10 | > 3
GI-ME-N (Neuroblastoma) |  |  | 2.22 | > 1 |  | > 10 | > 0.3 | > 1 | > 2 | > 0.001 | > 1 | > 0.3 | > 3 | > 1 | > 10 |  | > 10 | 0.731 | > 1 | > 1 | > 10 |  | > 10 | > 1 | > 10 | > 1 | > 10 | > 10 | > 10 |  |  |  |  | > 10 |  | > 10 | > 3

From the supplement of paper PMC11061612
